One series addresses T1, CYP1A2 (Homo sapiens, UniProt P05177).
T1 construct: host or cells: baculovirus/insect cells
T1 sequence (P05177 1-516): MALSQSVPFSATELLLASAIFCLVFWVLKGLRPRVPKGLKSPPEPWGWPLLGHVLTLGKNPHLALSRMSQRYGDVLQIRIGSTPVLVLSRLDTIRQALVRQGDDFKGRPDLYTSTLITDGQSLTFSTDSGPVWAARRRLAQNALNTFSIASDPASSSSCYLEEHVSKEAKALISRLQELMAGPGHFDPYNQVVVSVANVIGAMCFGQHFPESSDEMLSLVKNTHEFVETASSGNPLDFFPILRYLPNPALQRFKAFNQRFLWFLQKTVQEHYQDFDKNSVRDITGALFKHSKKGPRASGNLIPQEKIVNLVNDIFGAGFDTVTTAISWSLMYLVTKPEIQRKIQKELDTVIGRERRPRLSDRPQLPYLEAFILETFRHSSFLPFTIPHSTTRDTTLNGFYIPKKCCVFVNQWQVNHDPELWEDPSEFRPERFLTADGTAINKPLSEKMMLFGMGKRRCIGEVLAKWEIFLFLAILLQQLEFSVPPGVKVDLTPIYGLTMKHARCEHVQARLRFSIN
In words: Cytochrome P450 inhibition, isoenzyme 1A2. To be noted: baculovirus/insect cell-expressed recombinant human CYP1A2, read-out: Inhibition of the Cytochrome P450 Isoenzymes IC50, 1A2. It counts as in vitro ADME. The procedure:
(§1) The Cytochrome P450 inhibition was performed according to the publication of Crespi et al. (Anal Biochem., 248, 188-190 (1997)) with use of baculovirus/insect cell-expressed, human Cytochrome P 450 isoenzymes (1A2, 2C9, 2C19, 2D6, 3A4).

A further series has as its target T2, CYP3A4 (Homo sapiens, UniProt P08684).
T2 construct: host or cells: baculovirus/insect cells
In words: Cytochrome P450 inhibition, isoenzyme 3A4. It counts as in vitro ADME. As to conditions: baculovirus/insect cell-expressed recombinant human CYP3A4, read-out: Inhibition of the Cytochrome P450 Isoenzymes IC50, 3A4. The procedure:
as §1

The target in the next series is T3, CYP2D6 (Homo sapiens, UniProt P10635).
T3 construct: host or cells: baculovirus/insect cells
In words: Cytochrome P450 inhibition, isoenzyme 2D6. It counts as in vitro ADME. To be noted: baculovirus/insect cell-expressed recombinant human CYP2D6, read-out: Inhibition of the Cytochrome P450 Isoenzymes IC50, 2D6. Here is the method: as §1

A further series has as its target T4, CYP2C19 (Homo sapiens, UniProt P33261).
T4 construct: host or cells: baculovirus/insect cells
In words: Cytochrome P450 inhibition, isoenzyme 2C19. In kind it is in vitro ADME. To be noted: baculovirus/insect cell-expressed recombinant human CYP2C19, read-out: Inhibition of the Cytochrome P450 Isoenzymes IC50, 2C19. Here is the method:
as §1

In a further series the target is T5, CYP2C9 (Homo sapiens, UniProt P11712).
T5 construct: host or cells: baculovirus/insect cells
In words: Cytochrome P450 inhibition, isoenzyme 2C9. In kind it is in vitro ADME. To be noted: baculovirus/insect cell-expressed recombinant human CYP2C9, read-out: Inhibition of the Cytochrome P450 Isoenzymes IC50, 2C9. The procedure: as §1

The next series addresses VEGFR II (KDR) (Homo sapiens, UniProt P35968). In words: Inhibition of the KDR kinase activity (33P-ATP, poly-(Glu4Tyr) filter assay). In kind it is biochemical. To be noted: phosphate incorporation into poly-(Glu4Tyr), 10 minutes at room temperature. The procedure:
• Stock Solutions • Stock solution A: 3 mmol of ATP in water, pH 7.0 (−70° C.) • Stock solution B: g-33P-ATP 1 mCi/100 μl • Stock solution C: poly-(Glu4 Tyr). 10 mg/ml in water Solution for Dilutions • Substrate solvent: 10 mmol of DTT, 10 mmol of manganese chloride, 100 mmol of magnesium chloride • Enzyme solution: 120 mmol of tris/HCl, pH 7.5, 10 μM of sodium vanadium oxide Sample Application 1 Inhibition of the KDR- and FLT-1 Kinase Activity in the Presence of the Compounds According to the Invention
In a microtiter plate (without protein binding) that tapers to a point, 10 μl of substrate mix (10 μl of volume of ATP stock solution A+25 μCi of g-33P-ATP (about 2.5 μl of stock solution B)+30 μl of poly-(Glu4Tyr) stock solution C+1.21 ml of substrate solvent), 10 μl of inhibitor solution (substances corresponding to the dilutions, 3% DMSO in substrate solvent as a control) and 10 μl of enzyme solution (11.25 μg of enzyme stock solution (KDR or FLT-1 kinase) are added at 4° C. in 1.25 ml of enzyme solution (dilute). It is thoroughly mixed and incubated for 10 minutes at room temperature. Then, 10 μl of stop solution (250 mmol of EDTA, pH 7.0) is added, mixed, and 10 μl of the solution is transferred to a P 81 phosphocellulose filter. Then, it is washed several times in 0.1 M phosphoric acid. The filter paper is dried, coated with Meltilex and measured in a microbeta counter.
The IC50 values are determined from the inhibitor concentration, which is necessary to inhibit the phosphate incorporation to 50% of the uninhibited incorporation after removal of the blank reading (EDTA-stopped reaction).

Bounds are passed on as bounds.

Sequence of VEGFR II (KDR) (P35968 20-1356, species assumed): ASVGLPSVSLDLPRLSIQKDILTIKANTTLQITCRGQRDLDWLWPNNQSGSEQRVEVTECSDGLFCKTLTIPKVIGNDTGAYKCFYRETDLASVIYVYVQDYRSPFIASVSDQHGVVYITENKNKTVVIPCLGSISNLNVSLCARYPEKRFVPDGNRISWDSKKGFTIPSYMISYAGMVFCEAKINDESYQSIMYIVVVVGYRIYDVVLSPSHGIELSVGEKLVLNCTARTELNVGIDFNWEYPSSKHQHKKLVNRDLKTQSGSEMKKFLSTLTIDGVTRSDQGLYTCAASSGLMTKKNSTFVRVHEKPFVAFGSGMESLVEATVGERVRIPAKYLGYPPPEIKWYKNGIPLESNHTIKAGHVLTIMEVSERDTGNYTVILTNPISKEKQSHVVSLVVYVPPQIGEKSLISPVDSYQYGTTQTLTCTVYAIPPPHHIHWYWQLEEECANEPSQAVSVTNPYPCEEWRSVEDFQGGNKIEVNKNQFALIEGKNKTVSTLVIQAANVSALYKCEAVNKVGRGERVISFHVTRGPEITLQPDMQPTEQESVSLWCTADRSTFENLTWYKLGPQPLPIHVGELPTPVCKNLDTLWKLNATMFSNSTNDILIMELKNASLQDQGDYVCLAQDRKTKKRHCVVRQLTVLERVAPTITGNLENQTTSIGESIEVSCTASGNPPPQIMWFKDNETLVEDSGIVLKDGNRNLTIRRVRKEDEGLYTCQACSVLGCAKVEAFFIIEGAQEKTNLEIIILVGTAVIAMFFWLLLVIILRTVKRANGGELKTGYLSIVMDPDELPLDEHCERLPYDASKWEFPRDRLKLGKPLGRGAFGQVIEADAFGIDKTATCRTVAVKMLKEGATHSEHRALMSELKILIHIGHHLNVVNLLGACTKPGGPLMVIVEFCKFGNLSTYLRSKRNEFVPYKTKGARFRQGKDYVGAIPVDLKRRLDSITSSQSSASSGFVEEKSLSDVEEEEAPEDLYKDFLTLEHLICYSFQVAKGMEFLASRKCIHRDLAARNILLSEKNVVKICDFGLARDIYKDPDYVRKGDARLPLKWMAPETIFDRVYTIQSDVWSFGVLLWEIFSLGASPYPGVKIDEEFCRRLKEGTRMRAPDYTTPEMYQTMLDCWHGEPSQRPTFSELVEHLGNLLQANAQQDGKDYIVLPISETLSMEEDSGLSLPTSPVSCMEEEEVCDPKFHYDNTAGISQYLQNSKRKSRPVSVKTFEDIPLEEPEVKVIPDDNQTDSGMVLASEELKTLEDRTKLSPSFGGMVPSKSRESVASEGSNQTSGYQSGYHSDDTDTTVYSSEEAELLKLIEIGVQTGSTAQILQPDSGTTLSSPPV
T3 sequence (P10635 whole entry): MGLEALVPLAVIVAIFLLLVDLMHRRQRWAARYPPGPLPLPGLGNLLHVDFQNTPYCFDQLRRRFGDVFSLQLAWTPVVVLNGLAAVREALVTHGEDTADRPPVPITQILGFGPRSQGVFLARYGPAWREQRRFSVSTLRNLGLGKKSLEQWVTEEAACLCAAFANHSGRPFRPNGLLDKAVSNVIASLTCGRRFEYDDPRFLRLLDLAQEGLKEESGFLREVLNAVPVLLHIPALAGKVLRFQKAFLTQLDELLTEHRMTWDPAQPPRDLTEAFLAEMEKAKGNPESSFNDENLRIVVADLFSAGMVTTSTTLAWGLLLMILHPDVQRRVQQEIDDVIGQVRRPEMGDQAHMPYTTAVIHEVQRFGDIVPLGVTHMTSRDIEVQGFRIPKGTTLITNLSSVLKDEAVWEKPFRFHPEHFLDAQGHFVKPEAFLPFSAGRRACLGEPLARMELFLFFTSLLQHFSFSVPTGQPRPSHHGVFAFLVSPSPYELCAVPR
T5 sequence (P11712 whole entry): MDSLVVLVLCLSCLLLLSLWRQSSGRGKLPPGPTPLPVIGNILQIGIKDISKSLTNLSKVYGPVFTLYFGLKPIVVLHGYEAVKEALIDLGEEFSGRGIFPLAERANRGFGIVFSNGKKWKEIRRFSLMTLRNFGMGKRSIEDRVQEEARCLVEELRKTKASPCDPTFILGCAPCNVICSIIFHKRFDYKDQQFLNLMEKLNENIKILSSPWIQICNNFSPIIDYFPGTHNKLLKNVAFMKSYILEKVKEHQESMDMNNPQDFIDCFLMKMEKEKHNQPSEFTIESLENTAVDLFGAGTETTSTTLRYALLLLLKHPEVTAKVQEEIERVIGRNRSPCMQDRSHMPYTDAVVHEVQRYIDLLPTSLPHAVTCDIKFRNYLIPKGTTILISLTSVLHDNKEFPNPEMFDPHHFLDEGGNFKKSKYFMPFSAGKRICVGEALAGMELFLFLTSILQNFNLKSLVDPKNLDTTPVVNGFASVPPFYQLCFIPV
T4 sequence (P33261 whole entry): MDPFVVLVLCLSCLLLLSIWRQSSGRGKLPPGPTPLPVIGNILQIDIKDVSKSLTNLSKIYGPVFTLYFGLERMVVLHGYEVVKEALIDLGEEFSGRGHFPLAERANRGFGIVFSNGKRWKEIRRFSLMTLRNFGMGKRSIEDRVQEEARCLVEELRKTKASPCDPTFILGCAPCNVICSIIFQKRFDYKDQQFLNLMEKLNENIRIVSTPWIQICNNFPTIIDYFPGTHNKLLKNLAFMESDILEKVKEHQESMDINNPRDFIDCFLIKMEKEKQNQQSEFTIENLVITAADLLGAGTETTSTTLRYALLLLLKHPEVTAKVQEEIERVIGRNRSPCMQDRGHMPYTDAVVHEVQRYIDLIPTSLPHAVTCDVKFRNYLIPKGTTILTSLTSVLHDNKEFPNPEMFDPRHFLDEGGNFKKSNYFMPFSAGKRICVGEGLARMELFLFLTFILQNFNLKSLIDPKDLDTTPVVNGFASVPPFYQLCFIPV
T2 sequence (P08684 whole entry): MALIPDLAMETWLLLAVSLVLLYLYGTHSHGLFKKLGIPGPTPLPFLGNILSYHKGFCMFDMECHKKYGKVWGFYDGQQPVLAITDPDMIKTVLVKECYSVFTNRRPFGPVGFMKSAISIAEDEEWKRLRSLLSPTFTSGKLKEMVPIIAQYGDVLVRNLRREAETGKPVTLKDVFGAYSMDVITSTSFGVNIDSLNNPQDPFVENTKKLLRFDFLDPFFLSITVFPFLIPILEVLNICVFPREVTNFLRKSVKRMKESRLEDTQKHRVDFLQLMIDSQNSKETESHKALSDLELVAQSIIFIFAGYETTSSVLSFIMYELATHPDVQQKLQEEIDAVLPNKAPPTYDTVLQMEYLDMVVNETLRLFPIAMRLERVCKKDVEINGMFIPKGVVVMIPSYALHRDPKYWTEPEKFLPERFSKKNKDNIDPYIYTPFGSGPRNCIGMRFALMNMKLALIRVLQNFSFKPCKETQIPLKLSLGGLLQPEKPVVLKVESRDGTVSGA

For the compound `O=C(Nc1cc2ccccc2cn1)c1ccccc1NCc1cc[n+]([O-])cc1` [Example 1, N-(Isoquinolin-3-yl)-2-(4-pyridylmethyl)aminobenzoic acid amide-N-oxide], the IC50 (in general, the concentration that inhibits the measured activity by half) on CYP1A2 is over 30000 nM; at CYP3A4 it was over 30000 nM; on CYP2D6, over 30000 nM; at CYP2C19, 3600 nM; at CYP2C9, 5200 nM; against VEGFR II (KDR), 30 nM.
For `O=C(Nc1cc2ccccc2cn1)c1ccccc1NCc1ccc[n+]([O-])c1` [Example 2], the melting point (in general, the temperature, or range, at which the solid turns liquid) stood at 191.9 °C. Moreover, the IC50 on VEGFR II (KDR) is 200 nM.
Compound `O=C(Nc1cccc(C(F)(F)F)c1)c1ccccc1NCc1cc[n+]([O-])cc1` [Example 4] showed a melting point of 181 to 184 °C. The compound also yielded an IC50 at VEGFR II (KDR) of 50 nM.
As to `O=C(Nc1cc2ccccc2cn1)c1cccnc1NCc1cc[n+]([O-])cc1` [Example 7], the melting point was found to be 196.2 °C. This compound also displayed an IC50 against VEGFR II (KDR) of 50 nM.
At VEGFR II (KDR), `O=C(Nc1cccc(C(F)(F)F)c1)c1cccnc1NCc1cc[n+]([O-])cc1` [Example 8] displayed an IC50 of 50 nM.
